Measured values from US11690858B1, “Neuroprotective mixture for mitigating the harmful effects of ischemic stroke” (Tricerapro Holding, LLC, priority 2018, dated 2023).
Values joined by “and” are separate entries in the source; they are usually repeats but may differ in a detail not shown here. Equal values may be shown once.

Key:
[1] = tested on: rat model of ischemic stroke; assay: Infarct volumes by treatment groups in a rat model of ischemic stroke; assay type: in vivo; design: unit not given here; conditions: for Infarct volume, Contra, Average / Infarct volume, Infarct, Average: average of 5 animals; for Infarct volume, Contra / Infarct volume, Infarct: individual animals; for Infarct volume, Contralateral / Infarct volume, Ipsilateral: rounded average
Source text: Additional studies using a validated rat model for ischemic stroke have also been conducted. These studies made comparisons in stroke volumes between five different treatment groups: a. Ischemic stroke model in aged rats; no reperfusion; no neuroprotection b. Ischemic stroke model in aged rats; no reperfusion; neuroprotection administered c. Ischemic stroke model in aged rats; reperfusion (tPA) given; no neuroprotection d. Ischemic model in young rats; no reperfusion; no neuroprotection e. Ischemic stroke model in young rats; reperfusion (tPA) given; no neuroprotection

[2] = tested on: diffuse anoxia injury model in rats; conditions: cited from earlier work; for amount of neuronal injury: diffuse anoxia injury model in rats; for entry into the cerebrospinal fluid (CSF): rats
[3] = tested on: fluid percussion model of head trauma; conditions: diffuse neuronal injury; cited from earlier work
[4] = tested on: rat model of ischemic infarct; conditions: cited from earlier work

Compound | Infarct volume, Contra, Average ([1]; aged rats, untreated aged 1.412) | Infarct volume, Infarct, Average ([1]; aged rats, untreated aged 12.918) | Infarct volume, Contra ([1]; aged rats) | Infarct volume, Infarct ([1]; aged rats) | Infarct volume, Contralateral ([1]; aged rats, untreated aged 1.4) | Infarct volume, Ipsilateral ([1]; aged rats, untreated aged 12.9) | Infarct volume, Contra, Average ([1]; young rats, untreated young 1.028) | Infarct volume, Infarct, Average ([1]; young rats, untreated young 8.012) | Infarct volume, Contra ([1]; young rats) | Infarct volume, Infarct ([1]; young rats) | Infarct volume, Contralateral ([1]; young rats, untreated young 1) | Infarct volume, Ipsilateral ([1]; young rats, untreated young 8) | amount of neuronal injury [2] | entry into the cerebrospinal fluid (CSF) [2] | extent of neuronal injury [3] | average size of infarcts ([4]; intraperitoneal injection, rat model of ischemia, reduced from 165 mm^3) [mm^3] | size of the measured infarct ([4]; intraperitoneal, 1 mmol/kg immediately after MCA occlusion)
tissue plasminogen activator [IPA] | 1.086 | 8.868 | 1.29 and 0.87 and 0.81 and 1.39 and 1.07 | 9.58 and 7.26 and 7.85 and 8.95 and 10.7 | 1.1 | 8.9 | 1.178 | 4.208 | 1.07 and 1.28 and 1.66 and 0.52 and 1.36 | 3.75 and 4.35 and 3.64 and 4.1 and 5.2 | 1.2 | 4.2 | – | – | – | – | –
O=S(=O)([O-])[O-].[Mg+2] [magnesium sulfate] | – | – | – | – | – | – | – | – | – | – | – | – | alter the amount of neuronal injury | able to enter the cerebrospinal fluid (CSF) | – | – | –
[Cl-].[Cl-].[Mg+2] [MgCl2, magnesium chloride] | – | – | – | – | – | – | – | – | – | – | – | – | alter the amount of neuronal injury | able to enter the cerebrospinal fluid (CSF) | limits the extent of neuronal injury | 122 | decreased the size of the measured infarct
